# Patent US12723063B2, “GIPR-agonist compounds” (Eli Lilly and Company, priority 2019, dated 2026)
# *1 amine or outer side, *2 acyl side, *3 side chain or, on linkers, in order; H or OH if unused. Where a SMILES comes first, the peptide text is derived from it. Side-chain parts run from the residue outwards. [ ]: non-standard residue; d: D form. The star is where a group is joined. C20 diacid = O=C(O)CCCCCCCCCCCCCCCCCCC(=O)*; αMePhe(2-F) = C[C@](N)(Cc1ccccc1F)C(=O)O; γGlu = O=C(O)[C@H](CCC(=O)[*:2])N[*:1]; αMeF = C[C@](N)(Cc1ccccc1)C(=O)O; 4Pal = N[C@@H](Cc1ccncc1)C(=O)O; αMeL = CC(C)C[C@](C)(N)C(=O)O; AEEA = NCCOCCOCC(=O)O; Aib = CC(C)(N)C(=O)O
# Legend:
# human GIPR = target: T1, human GIPR (Homo sapiens, UniProt P48546); assay: [125I]-GIP binding, SPA with WGA beads, 0.1% bacitracin; details: geometric mean, read-out: hGIPR Ki
# T1 construct: expressed in transfected cells; crude membranes
# T1 sequence (P48546 22-466): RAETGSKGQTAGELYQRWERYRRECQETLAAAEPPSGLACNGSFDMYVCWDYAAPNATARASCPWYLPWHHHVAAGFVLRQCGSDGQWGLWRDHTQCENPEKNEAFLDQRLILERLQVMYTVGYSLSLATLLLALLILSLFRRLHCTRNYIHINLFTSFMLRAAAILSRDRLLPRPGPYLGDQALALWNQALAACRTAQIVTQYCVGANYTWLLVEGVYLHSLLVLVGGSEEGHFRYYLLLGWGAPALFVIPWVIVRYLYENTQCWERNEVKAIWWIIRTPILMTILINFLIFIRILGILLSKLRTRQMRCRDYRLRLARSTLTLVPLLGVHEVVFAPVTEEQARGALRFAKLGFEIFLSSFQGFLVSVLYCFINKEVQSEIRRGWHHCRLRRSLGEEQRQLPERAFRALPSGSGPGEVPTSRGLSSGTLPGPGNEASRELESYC
# In short: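 Ki values are geometric means (SEM, n independent days), derived from four-parameter nonlinear regression of IC50. Membranes came from hGIPR-expressing CHO cells.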
# human GLP-1R = target: T2, human GLP-1R (Homo sapiens, UniProt P43220); assay: [125I]-GLP-1 binding, SPA with WGA beads, 0.1% bacitracin; details: geometric mean, read-out: hGLP1R Ki
# T2 construct: expressed in transfected cells; crude membranes
# In short: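 Binding buffer was 25 mM HEPES pH 7.4 with 2.5 mM CaCl2, 1 mM MgCl2, 0.1% (w/v) bacitracin, 0.003% Tween-20 and EDTA-free protease inhibitors. Four-parameter regression gave IC50, converted to Ki (geometric mean, SEM, n independent days).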
# T2 sequence (P43220 24-463): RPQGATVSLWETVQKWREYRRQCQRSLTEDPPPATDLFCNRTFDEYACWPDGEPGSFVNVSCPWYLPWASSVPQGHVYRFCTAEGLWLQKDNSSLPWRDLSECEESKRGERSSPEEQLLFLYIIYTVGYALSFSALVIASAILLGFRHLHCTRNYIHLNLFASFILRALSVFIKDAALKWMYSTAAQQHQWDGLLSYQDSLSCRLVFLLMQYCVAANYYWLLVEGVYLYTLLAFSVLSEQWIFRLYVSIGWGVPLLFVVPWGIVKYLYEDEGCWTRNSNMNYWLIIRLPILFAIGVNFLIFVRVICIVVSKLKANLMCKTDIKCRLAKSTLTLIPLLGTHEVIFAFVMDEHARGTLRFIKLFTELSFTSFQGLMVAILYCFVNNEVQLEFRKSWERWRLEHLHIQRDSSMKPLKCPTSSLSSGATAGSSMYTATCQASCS
Compound,Ki (human GIPR) [nM],Ki (human GLP-1R) [nM]
CC[C@H](C)[C@H](NC(=O)[C@H](Cc1ccccc1)NC(=O)[C@@H](NC(=O)CNC(=O)[C@H](CCC(=O)O)NC(=O)C(C)(C)NC(=O)[C@@H](N)Cc1ccc(O)cc1)[C@@H](C)O)C(=O)N[C@@H](CO)C(=O)N[C@@H](CC(=O)O)C(=O)N[C@@H](Cc1ccc(O)cc1)C(=O)N[C@@H](CO)C(=O)N[C@H](C(=O)N[C@@](C)(CC(C)C)C(=O)N[C@@H](CC(C)C)C(=O)N[C@@H](CC(=O)O)C(=O)N[C@@H](CCCCN)C(=O)N[C@@H](CCCCNC(=O)COCCOCCNC(=O)COCCOCCNC(=O)CC[C@H](NC(=O)CCCCCCCCCCCCCCCCCCC(=O)O)C(=O)O)C(=O)N[C@@H](Cc1c[nH]cn1)C(=O)N[C@@H](CCC(N)=O)C(=O)NC(C)(C)C(=O)N[C@@H](CC(=O)O)C(=O)N[C@@H](Cc1ccccc1)C(=O)N[C@H](C(=O)N[C@@H](CCC(=O)O)C(=O)N[C@@H](Cc1ccc(O)cc1)C(=O)N[C@@H](CC(C)C)C(=O)N[C@@H](CC(C)C)C(=O)N[C@@H](CCC(=O)O)C(=O)NCC(=O)NCC(=O)N1CCC[C@H]1C(=O)N[C@@H](CO)C(=O)N[C@@H](CO)C(=O)NCC(=O)N[C@@H](C)C(=O)N1CCC[C@H]1C(=O)N1CCC[C@H]1C(=O)N1CCC[C@H]1C(=O)N[C@@H](CO)C(N)=O)C(C)C)[C@@H](C)CC [Example 69] (H-Y[Aib]EGTFISDYSI[αMeL]LDKK([AEEA-AEEA-γGlu-C20 diacid])HQ[Aib]DFVEYLLEGGPSSGAPPPS-NH2),0.0406,144
CC[C@H](C)[C@H](NC(=O)[C@H](CO)NC(=O)[C@H](Cc1ccc(O)cc1)NC(=O)[C@H](CC(=O)O)NC(=O)[C@H](CO)NC(=O)[C@@H](NC(=O)[C@](C)(Cc1ccccc1)NC(=O)[C@@H](NC(=O)CNC(=O)[C@H](CCC(=O)O)NC(=O)C(C)(C)NC(=O)[C@@H](N)Cc1ccc(O)cc1)[C@@H](C)O)[C@@H](C)CC)C(=O)N[C@@](C)(CC(C)C)C(=O)N[C@@H](CC(C)C)C(=O)N[C@@H](CC(=O)O)C(=O)N[C@@H](CCCCN)C(=O)N[C@@H](CCCCNC(=O)COCCOCCNC(=O)COCCOCCNC(=O)CC[C@H](NC(=O)CCCCCCCCCCCCCCCCCCC(=O)O)C(=O)O)C(=O)N[C@@H](Cc1c[nH]cn1)C(=O)N[C@@H](CCC(N)=O)C(=O)NC(C)(C)C(=O)N[C@@H](CC(=O)O)C(=O)N[C@@H](Cc1ccccc1)C(=O)N[C@H](C(=O)N[C@@H](CCC(=O)O)C(=O)N[C@@H](Cc1ccncc1)C(=O)N[C@@H](CC(C)C)C(=O)N[C@@H](CC(C)C)C(=O)N[C@@H](C)C(=O)NCC(=O)NCC(=O)N1CCC[C@H]1C(=O)N[C@@H](CO)C(=O)N[C@@H](CO)C(=O)NCC(=O)N[C@@H](C)C(=O)N1CCC[C@H]1C(=O)N1CCC[C@H]1C(=O)N1CCC[C@H]1C(=O)N[C@@H](CO)C(N)=O)C(C)C [Example 50] (H-Y[Aib]EGT[αMeF]ISDYSI[αMeL]LDKK([AEEA-AEEA-γGlu-C20 diacid])HQ[Aib]DFVE[4Pal]LLAGGPSSGAPPPS-NH2),0.0501,34.9
CC[C@H](C)[C@H](NC(=O)[C@H](CO)NC(=O)[C@H](Cc1ccc(O)cc1)NC(=O)[C@H](CC(=O)O)NC(=O)[C@H](CO)NC(=O)[C@@H](NC(=O)[C@](C)(Cc1ccccc1F)NC(=O)[C@@H](NC(=O)CNC(=O)[C@H](CCC(=O)O)NC(=O)C(C)(C)NC(=O)[C@@H](N)Cc1ccc(O)cc1)[C@@H](C)O)[C@@H](C)CC)C(=O)N[C@@H](C)C(=O)N[C@@H](CC(C)C)C(=O)N[C@@H](CC(=O)O)C(=O)N[C@@H](CCCCN)C(=O)N[C@@H](CCCCNC(=O)COCCOCCNC(=O)COCCOCCNC(=O)CC[C@H](NC(=O)CCCCCCCCCCCCCCCCCCC(=O)O)C(=O)O)C(=O)N[C@@H](Cc1c[nH]cn1)C(=O)N[C@@H](CCC(N)=O)C(=O)NC(C)(C)C(=O)N[C@@H](CC(=O)O)C(=O)N[C@@H](Cc1ccccc1)C(=O)N[C@H](C(=O)N[C@@H](CCC(=O)O)C(=O)N[C@@H](Cc1ccc(O)cc1)C(=O)N[C@@H](CC(C)C)C(=O)N[C@@H](CC(C)C)C(=O)N[C@@H](CCC(=O)O)C(=O)N[C@H](C(=O)NCC(=O)N1CCC[C@H]1C(=O)N[C@@H](CO)C(=O)N[C@@H](CO)C(=O)NCC(=O)N[C@@H](C)C(=O)N1CCC[C@H]1C(=O)N1CCC[C@H]1C(=O)N1CCC[C@H]1C(=O)N[C@@H](CO)C(N)=O)[C@@H](C)O)C(C)C [Example 36] (H-Y[Aib]EGT[αMePhe(2-F)]ISDYSIALDKK([AEEA-AEEA-γGlu-C20 diacid])HQ[Aib]DFVEYLLETGPSSGAPPPS-NH2),0.0683,393
CC[C@H](C)[C@H](NC(=O)[C@H](CO)NC(=O)[C@H](Cc1ccc(O)cc1)NC(=O)[C@H](CC(=O)O)NC(=O)[C@H](CO)NC(=O)[C@@H](NC(=O)[C@](C)(Cc1ccccc1)NC(=O)[C@@H](NC(=O)CNC(=O)[C@H](CCC(=O)O)NC(=O)C(C)(C)NC(=O)[C@@H](N)Cc1ccc(O)cc1)[C@@H](C)O)[C@@H](C)CC)C(=O)N[C@@H](C)C(=O)N[C@@H](CC(C)C)C(=O)N[C@@H](CC(=O)O)C(=O)N[C@@H](CCCCN)C(=O)N[C@@H](CCCCNC(=O)COCCOCCNC(=O)COCCOCCNC(=O)CC[C@H](NC(=O)CCCCCCCCCCCCCCCCCCC(=O)O)C(=O)O)C(=O)N[C@@H](Cc1c[nH]cn1)C(=O)N[C@@H](CCC(N)=O)C(=O)NC(C)(C)C(=O)N[C@@H](CC(=O)O)C(=O)N[C@@H](Cc1ccccc1)C(=O)N[C@H](C(=O)N[C@@H](CCC(=O)O)C(=O)N[C@@H](Cc1ccncc1)C(=O)N[C@@H](CC(C)C)C(=O)N[C@@H](CC(C)C)C(=O)N[C@@H](CCC(=O)O)C(=O)N[C@@H](CCC(N)=O)C(=O)NCC(=O)N1CCC[C@H]1C(=O)N[C@@H](CO)C(=O)N[C@@H](CO)C(=O)NCC(=O)N[C@@H](C)C(=O)N1CCC[C@H]1C(=O)N1CCC[C@H]1C(=O)N1CCC[C@H]1C(=O)N[C@@H](CO)C(N)=O)C(C)C [Example 42] (H-Y[Aib]EGT[αMeF]ISDYSIALDKK([AEEA-AEEA-γGlu-C20 diacid])HQ[Aib]DFVE[4Pal]LLEQGPSSGAPPPS-NH2),0.0392,563
CC[C@H](C)[C@H](NC(=O)[C@H](CO)NC(=O)[C@H](Cc1ccc(O)cc1)NC(=O)[C@H](CC(=O)O)NC(=O)[C@H](CO)NC(=O)[C@@H](NC(=O)[C@](C)(Cc1ccccc1F)NC(=O)[C@@H](NC(=O)CNC(=O)[C@H](CCC(=O)O)NC(=O)[C@H](C)NC(=O)[C@@H](Cc1ccc(O)cc1)NC(C)=O)[C@@H](C)O)[C@@H](C)CC)C(=O)N[C@@H](C)C(=O)N[C@@H](CC(C)C)C(=O)N[C@@H](CC(=O)O)C(=O)N[C@@H](CCCCN)C(=O)N[C@@H](CCCCNC(=O)COCCOCCNC(=O)COCCOCCNC(=O)CC[C@H](NC(=O)CCCCCCCCCCCCCCCCCCC(=O)O)C(=O)O)C(=O)N[C@@H](Cc1c[nH]cn1)C(=O)N[C@@H](CCC(N)=O)C(=O)NC(C)(C)C(=O)N[C@@H](CCC(=O)O)C(=O)N[C@@H](Cc1ccccc1)C(=O)N[C@H](C(=O)N[C@@H](CC(N)=O)C(=O)N[C@@H](Cc1ccc(O)cc1)C(=O)N[C@@H](CC(C)C)C(=O)N[C@@H](CC(C)C)C(=O)N[C@@H](CCC(=O)O)C(=O)NCC(=O)NCC(=O)N1CCC[C@H]1C(=O)N[C@@H](CO)C(=O)N[C@@H](CO)C(=O)NCC(=O)N[C@@H](C)C(=O)N1CCC[C@H]1C(=O)N1CCC[C@H]1C(=O)N1CCC[C@H]1C(=O)N[C@@H](CO)C(N)=O)C(C)C [Example 33] (Ac-[dY]AEGT[αMePhe(2-F)]ISDYSIALDKK([AEEA-AEEA-γGlu-C20 diacid])HQ[Aib]EFVNYLLEGGPSSGAPPPS-NH2),0.0369,31.2
CC[C@H](C)[C@H](NC(=O)[C@H](CO)NC(=O)[C@H](Cc1ccc(O)cc1)NC(=O)[C@H](CC(=O)O)NC(=O)[C@H](CO)NC(=O)[C@@H](NC(=O)[C@](C)(CC(C)C)NC(=O)[C@@H](NC(=O)CNC(=O)[C@H](CCC(=O)O)NC(=O)C(C)(C)NC(=O)[C@@H](N)Cc1ccc(O)cc1)[C@@H](C)O)[C@@H](C)CC)C(=O)N[C@@H](C)C(=O)N[C@@H](CC(C)C)C(=O)N[C@@H](CC(=O)O)C(=O)N[C@@H](CCCCN)C(=O)N[C@@H](CCCCNC(=O)COCCOCCNC(=O)COCCOCCNC(=O)CC[C@H](NC(=O)CCCCCCCCCCCCCCCCCCC(=O)O)C(=O)O)C(=O)N[C@@H](Cc1c[nH]cn1)C(=O)N[C@@H](CCC(N)=O)C(=O)NC(C)(C)C(=O)N[C@@H](CCC(=O)O)C(=O)N[C@@H](Cc1ccccc1)C(=O)N[C@H](C(=O)N[C@@H](CC(N)=O)C(=O)N[C@@H](Cc1ccc(O)cc1)C(=O)N[C@@H](CC(C)C)C(=O)N[C@@H](CC(C)C)C(=O)N[C@@H](C)C(=O)N[C@H](C(=O)NCC(=O)N1CCC[C@H]1C(=O)N[C@@H](CO)C(=O)N[C@@H](CO)C(=O)NCC(=O)N[C@@H](C)C(=O)N1CCC[C@H]1C(=O)N1CCC[C@H]1C(=O)N1CCC[C@H]1C(=O)N[C@@H](CO)C(N)=O)[C@@H](C)O)C(C)C [Example 35] (H-Y[Aib]EGT[αMeL]ISDYSIALDKK([AEEA-AEEA-γGlu-C20 diacid])HQ[Aib]EFVNYLLATGPSSGAPPPS-NH2),0.0351,177
